Measurements reported in US10858335B2 (Rigel Pharmaceuticals, Inc., priority 2014, dated 2020).

Each compound was assayed on GDF8 signaling (p-SMAD-3 (Ser423/425)) (assay: AlphaScreen SureFire SMAD3 (p-Ser423/425) assay, GDF8-stimulated cells (GDF pSMAD)). Conditions: Mus musculus, MPC-11, GDF8-stimulated pSMAD3, MPC11; tested as the salt form given; read-out: GDF pSMAD (MPC11) (μM), inhibition of GDF8 signaling.
Format: cell-based

Structure (SMILES)	IC50 [µM]
COc1cnc(-c2cccc(O)c2)c(-c2ccc3ncnc(N)c3c2)c1 [compound 994, 3-(3-(4-aminoquinazolin-6-yl)-5-methoxypyridin-2-yl)phenol]	3.21
Nc1ncnc2ccc(-c3cccnc3-c3cc(O)ccc3Cl)cc12 [compound 1016, 3-(3-(4-aminoquinazolin-6-yl)pyridin-2-yl)-4-chlorophenol]	2.77
COc1cnc(-c2cc(Cl)ccc2F)c(-c2ccc3ncnc(N)c3c2)c1 [compound 993, 6-(2-(5-chloro-2-fluorophenyl)-5-methoxypyridin-3-yl)quinazolin-4-amine]	0.486
Nc1ncnc2ccc(-c3cccnc3-c3cc(Cl)ccc3F)nc12 [compound 1039]	0.0438
Fc1cc(-c2ncccc2-c2ccc3ncsc3c2)c(F)c(F)c1F [compound 1054]	0.737
Nc1ncnc2ccc(-c3cccnc3-c3cc(C(F)F)ccc3Cl)cc12 [compound 1018, 6-(2-(2-chloro-5-(difluoromethyl)phenyl)pyridin-3-yl)quinazolin-4-amine]	0.735
Cc1cc(-c2ncccc2-c2ccc3ncnn3c2)c(C)cc1F [compound 1064]	0.804

Same assay, conditions: Mus musculus, MPC-11, MPC11; GDF8-stimulated; p-SMAD3 AlphaScreen; read-out: GDF pSMAD (MPC11) (inhibition of GDF8 signaling)

Structure (SMILES)	IC50 [µM]
Cc1cccc(-c2ncccc2-c2cnc3cn[nH]c3c2)c1 [Compound 139, 6-(2-m-Tolylpyridin-3-yl)-1H-pyrazolo[4,3-b]pyridine]	3.37
COc1cc(-c2ncccc2-c2ccc3ncnc(N)c3c2)c(F)cc1F [compound 502, 6-(2-(2,4-Difluoro-5-methoxyphenyl)pyridin-3-yl)quinazolin-4-amine]	0.563
COc1ccc(-c2ncccc2-c2ccc3[nH]ncc3c2)cc1 [Compound 118, 5-(2-(4-Methoxyphenyl)pyridin-3-yl)-1H-indazole]	3.79
Cc1cc(-c2ncccc2-c2ccc3ncnc(NCC4CCN(C)CC4)c3c2)ccc1F [compound 421, 6-(2-(4-Fluoro-3-methylphenyl)pyridin-3-yl)-N-((1-methylpiperidin-4-yl)methyl)quinazolin-4-amine]	1.4
CNC(=O)c1cnc2ccc(-c3cccnc3-c3ccc(F)c(C)c3)cn12 [compound 584, 6-(2-(4-Fluoro-3-methylphenyl)pyridin-3-yl)-N-methylimidazo[1,2-a]pyridine-3-carboxamide]	0.0962
Fc1ccc(Cl)cc1-c1ncccc1-c1ccn2ncnc2c1 [compound 736, 7-(2-(5-Chloro-2-fluorophenyl)pyridin-3-yl)-[1,2,4]triazolo[1,5-a]pyridine]	0.251
Cc1cc(-c2ncc(NCc3cnc[nH]3)cc2-c2ccc3ncsc3c2)ccc1F [compound 322, N-((1H-Imidazol-5-yl)methyl)-5-(benzo[d]thiazol-6-yl)-6-(4-fluoro-3-methylphenyl)pyridin-3-amine]	0.253
COc1cnc(-c2cc(Cl)c(F)cc2F)c(-c2ccn3ncnc3c2)c1 [compound 857, 7-(2-(5-Chloro-2,4-difluorophenyl)-5-methoxypyridin-3-yl)-[1,2,4]triazolo[1,5-a]pyridine]	1.85
Cc1cc(-c2ncccc2-c2ccc3c(cnn3C(=O)NCCCN)c2)ccc1F [compound 640, N-(3-Aminopropyl)-5-(2-(4-fluoro-3-methylphenyl)pyridin-3-yl)-1H-indazole-1-carboxamide]	19.2
Cc1cc(-c2ncccc2-c2ccc3nc(F)cn3c2)ccc1F [compound 254, 2-Fluoro-6-(2-(4-fluoro-3-methylphenyl)pyridin-3-yl)imidazo[1,2-a]pyridine]	0.39
N#Cc1cccc(-c2ncccc2-c2ccc3[nH]ncc3c2)c1 [Compound 112, 3-(3-(1H-Indazol-5-yl)pyridin-2-yl)benzonitrile]	0.273
CCCNC(=O)c1cnc2ccc(-c3cccnc3-c3ccc(F)c(C)c3)cn12 [compound 583, 6-(2-(4-Fluoro-3-methylphenyl)pyridin-3-yl)-N-propylimidazo[1,2-a]pyridine-3-carboxamide]	0.518
Cc1cnc(-c2cccc(C(F)(F)F)c2)c(-c2ccn3ncnc3c2)c1 [compound 867, 7-(2-(3-((Difluoro-13-methyl)-12-fluoranyl)phenyl)-5-methylpyridin-3-yl)-[1,2,4]triazolo[1,5-a]pyridine]	0.752
CS(=O)(=O)Nc1cnc(-c2cccc(C3CC3)c2)c(-c2ccc3[nH]ncc3c2)c1 [Compound 31, N-(6-(3-Cyclopropylphenyl)-5-(1H-indazol-5-yl)pyridin-3-yl) methanesulfonamide]	1.9
Cc1cc(-c2ncccc2-c2ccc3ncc(C(C)(C)O)n3c2)ccc1F [compound 599, 2-(6-(2-(4-Fluoro-3-methylphenyl)pyridin-3-yl)imidazo[1,2-a]pyridin-3-yl)propan-2-ol]	3.88
Nc1ncnc2ccc(-c3cccnc3-c3cc(O)cc(Cl)c3)cc12 [compound 493, 3-(3-(4-Aminoquinazolin-6-yl)pyridin-2-yl)-5-chlorophenol]	0.938
Fc1ccccc1-c1ncccc1-c1ccc2ncsc2c1 [compound 657, 6-(2-(2-Fluorophenyl)pyridin-3-yl)benzo[d]thiazole]	3.49
Clc1ccc(Cl)c(-c2ncccc2-c2ccn3nccc3n2)c1 [compound 920, 5-(2-(2,5-Dichlorophenyl)pyridin-3-yl)pyrazolo[1,5-a]pyrimidine]	0.272
Cc1cc(-c2ncccc2-c2ccc3ncc(C(=O)NCCCn4ccnc4)n3c2)ccc1F [compound 653, N-(3-(1H-Imidazol-1-yl)propyl)-6-(2-(4-fluoro-3-methylphenyl)pyridin-3-yl)imidazo[1,2-a]pyridine-3-carboxamide]	1.04
Fc1cccc(-c2ncccc2-c2ccc3cn[nH]c3c2)c1 [Compound 100, 6-(2-(3-Fluorophenyl)pyridin-3-yl)-1H-indazole]	6.03

Structure (SMILES)	IC50 [µM]
N#Cc1cnc2ccc(-c3cccnc3-c3ccc(F)c(F)c3)cn12 [compound 622, 6-(2-(3,4-Difluorophenyl)pyridin-3-yl)imidazo[1,2-a]pyridine-3-carbonitrile]	3.63
Cc1cc(-c2ncc(NC(=O)N3CCOCC3)cc2-c2ccc3nccn3c2)ccc1F [compound 219, N-(6-(4-Fluoro-3-methylphenyl)-5-(imidazo[1,2-a]pyridin-6-yl)pyridin-3-yl)morpholine-4-carboxamide]	6.77
OCc1cnc2ccc(-c3cccnc3-c3cccc(C(F)(F)F)c3)cn12 [compound 568, (6-(2-(3-(Trifluoromethyl)phenyl)pyridin-3-yl)imidazo[1,2-a]pyridin-3-yl)methanol]	0.674
Fc1ccc(-c2ncccc2-c2ccc3ncnn3n2)cc1Cl [compound 953, 6-(2-(3-Chloro-4-fluorophenyl)pyridin-3-yl)-[1,2,4]triazolo[1,5-b]pyridazine]	0.661
Cn1cnc2ccc(-c3cccnc3-c3ccc(F)c(Cl)c3)cc2c1=O [compound 390, 6-(2-(3-Chloro-4-fluorophenyl)pyridin-3-yl)-3-methylquinazolin-4(3H)-one]	0.516
Cc1cccc(-c2ncccc2-c2ccc3[nH]cnc(=O)c3c2)c1 [compound 361, 6-(2-(m-tolyl)pyridin-3-yl)quinazolin-4(1H)-one]	0.23
Cn1cnc2ccc(-c3cccnc3-c3cc(Cl)c(F)cc3F)cc21 [compound 784, 6-(2-(5-Chloro-2,4-difluorophenyl)pyridin-3-yl)-1-methyl-1H-benzo[d]imidazole]	0.125
Cc1cn2cc(-c3cccnc3-c3cccc(C4CC4)c3)ccc2n1 [compound 533, 6-(2-(3-Cyclopropylphenyl)pyridin-3-yl)-2-methylimidazo[1,2-a]pyridine]	6.12
Nc1ncnc2ccc(-c3cccnc3-c3ccc4c(c3)CCC4)cc12 [compound 470, 6-(2-(2,3-Dihydro-1H-inden-5-yl)pyridin-3-yl)quinazolin-4-amine]	21.1
Fc1cc(F)c(-c2ncccc2-c2ccc3ncnn3c2)cc1Cl [compound 749, 6-(2-(5-Chloro-2,4-difluorophenyl)pyridin-3-yl)-[1,2,4]triazolo[1,5-a]pyridine]	0.298
Cc1cc(-c2ncc(NCc3ccc(O)c(O)c3)cc2-c2ccc3ncsc3c2)ccc1F [compound 368, 4-(((5-(Benzo[d]thiazol-6-yl)-6-(4-fluoro-3-methylphenyl)pyridin-3-yl)amino)methyl)benzene-1,2-diol]	0.189
Cc1cc(-c2ncccc2-c2ccn3c(C(=O)NCCN(C)C)ncc3c2)ccc1F [compound 268, N-(2-(Dimethylamino)ethyl)-7-(2-(4-fluoro-3-methylphenyl)pyridin-3-yl)imidazo[1,5-a]pyridine-3-carboxamide]	14.4
N#Cc1cc(-c2ncccc2-c2cnc3[nH]ncc3c2)ccc1F [Compound 158, 5-(3-(1H-Pyrazolo[3,4-b]pyridin-5-yl)pyridin-2-yl)-2-fluorobenzonitrile]	1.86
Cc1cc(-c2ncccc2-c2ccc3ncc(C(=O)NCCN)n3c2)ccc1F [compound 681, N-(2-Aminoethyl)-6-(2-(4-fluoro-3-methylphenyl)pyridin-3-yl)imidazo[1,2-a]pyridine-3-carboxamide]	0.288
COc1cccc(-c2ncccc2-c2cnc3cn[nH]c3c2)c1 [Compound 142, 6-(2-(3-Methoxyphenyl)pyridin-3-yl)-1H-pyrazolo[4,3-b]pyridine]	1.19
O=c1nc[nH]c2ccc(-c3cccnc3-c3cccc(C4CC4)c3)cc12 [compound 362, 6-(2-(3-Cyclopropylphenyl)pyridin-3-yl)quinazolin-4(1H)-one]	0.105
Cc1cccc(-c2ncccc2-c2ccc3nc(C)cn3c2)c1 [compound 532, 2-Methyl-6-(2-(m-tolyl)pyridin-3-yl)imidazo[1,2-a]pyridine]	17.7
Cc1cc(-c2ncc(N)cc2-c2ccc3ncsc3c2)ccc1F [Compound 18, 5-(Benzo[d]thiazol-6-yl)-6-(4-fluoro-3-methylphenyl)pyridin-3-amine]	0.142
FC(F)(F)c1cccc(-c2ncccc2-c2ccn3nccc3n2)c1 [compound 913, 5-(2-(3-(Trifluoromethyl)phenyl)pyridin-3-yl)pyrazolo[1,5-a]pyrimidine]	0.661
